Source: patent US20090306102A1, “2-PYRIDIN-2-YL-QUINAZOLINE DERIVATIVES AS POTASSIUM CHANNEL MODULATING AGENTS FOR THE TREATMENT OF RESPIRATORY DISEASES” (priority 2005, published 2009)

Molecular target: T1, hSK3 channels (Homo sapiens, UniProt Q9UGI6)
T1 construct: expressed in transfected cells; host or cells: HEK293
Assay: whole-cell patch-clamp recording of ionic current through SK channels (subtype 3) in HEK293 cells expressing hSK3
Format: cell-based
Method: The ionic current through small-conductance Ca^2+-activated K^+ channels (SK channels, subtype 3) is recorded using HEK293 tissue culture cells expressing hSK3 channels in a whole-cell configuration of the patch-clamp technique as described in e.g. WO 2006/100212.
For activators a SC100 value may be estimated. The SC100 value is defined as the Stimulating Concentration required for increasing the baseline current by 100%. The SC100 value determined for Compound A1 of the invention was well below 0.1 μM, which is an indication of its strong SK3 activating properties.

| SC100 value (Stimulating Concentration required for increasing the baseline current by 100%) | SMILES |
| --- | --- |
| below 0.1 μM | Cc1cccc(-c2nc(Nc3ccc(Cl)cc3)c3ccccc3n2)n1 [Compound A1, (4-Chloro-Phenyl)-[2-(6-Methyl-Pyridin-2-yl)-Quinazolin-4-yl]-Amine] |

Tested on: not given
Assay: not given

| melting point | SMILES |
| --- | --- |
| 211.9 to 213.2 °C | Clc1ccc(Nc2nc(-c3cccc(Cl)n3)nc3ccccc23)cc1 [Compound B5, (4-Chloro-Phenyl)-[2-(6-Chloro-Pyridin-2-yl)-Quinazolin-4-yl]-Amine] |
| 256.1 to 259.1 °C | Cc1cccc(-c2nc(Nc3ccc(Cl)cc3)c3ccccc3n2)n1 [Compound A1, (4-Chloro-Phenyl)-[2-(6-Methyl-Pyridin-2-yl)-Quinazolin-4-yl]-Amine] |
| 187.4 to 189.7 °C | Clc1ccc(CNc2nc(-c3cccc(Cl)n3)nc3ccccc23)cc1 [Compound B6, (4-Chloro-Benzyl)-[2-(6-chloro-Pyridin-2-yl)-Quinazolin-4-yl]-Amine] |
| 209.9 to 212.2 °C | Cc1cccc(-c2nc(NCc3ccc(Cl)cc3)c3ccccc3n2)n1 [Compound B3, (4-Chloro-Benzyl)-[2-(6-Methyl-Pyridin-2-yl)-Quinazolin-4-yl]-Amine] |
| 253.1 to 254.9 °C | Cc1cccc(-c2nc(NC3CCCCC3)c3ccccc3n2)n1 [Compound B2, Cyclohexyl-[2-(6-Methyl-Pyridin-2-yl)-Quinazolin-4-yl]-Amine] |
| 279 to 280.5 °C | Clc1ccc(Nc2nc(-c3nccc4ccccc34)nc3ccccc23)cc1 [Compound B10, (4-Chloro-Phenyl)-(2-Isoquinolin-1-yl-Quinazolin-4-yl)-Amine] |
| 274.8 to 276.9 °C | c1ccc2c(-c3nc(NC4CCCCC4)c4ccccc4n3)nccc2c1 [Compound B9, Cyclohexyl-(2-Isoquinolin-1-yl-Quinazolin-4-yl)-Amine] |
| > 350 °C | Oc1cccc(-c2nc(Nc3ccc(Cl)cc3)c3ccccc3n2)n1 [Compound A5, 6-[4-(4-Chloro-Phenylamino)-Quinazolin-2-yl]-Pyridin-2-ol] |
| 204 to 208 °C | O=C(c1ccccc1)c1cccnc1-c1nc(NC2CCCCC2)c2ccccc2n1 [Compound B1, [2-(4-Cyclohexylamino-Quinazolin-2-yl)-Pyridin-3-yl]-Phenyl-Methanone] |
| 221.4 to 224.5 °C | Clc1ccc(CNc2nc(-c3nccc4ccccc34)nc3ccccc23)cc1 [Compound B11, (4-Chloro-Benzyl)-(2-Isoquinolin-1-yl-quinazolin-4-yl)-Amine] |
| 242.4 to 247.9 °C | Clc1ccc(Nc2nc(-c3cccc(Br)n3)nc3ccccc23)cc1 [Compound A3, [2-(6-Bromo-Pyridin-2-yl)-Quinazolin-4-yl]-(4-Chloro-Phenyl)-Amine] |
| 218.4 to 220.9 °C | Clc1cccc(-c2nc(NC3CCCCC3)c3ccccc3n2)n1 [Compound B4, [2-(6-Chloro-Pyridin-2-yl)-Quinazolin-4-yl]-Cyclohexyl-Amine] |
| 118.3 to 121.4 °C | Fc1cccc(-c2nc(Nc3ccc(Cl)cc3)c3ccccc3n2)n1 [Compound A2, (4-Chloro-Phenyl)-[2-(6-Fluoro-Pyridin-2-yl)-Quinazolin-4-yl]-Amine] |
| 156.8 to 160 °C | COc1cccc(-c2nc(Nc3ccc(Cl)cc3)c3ccccc3n2)n1 [Compound A4, (4-Chloro-Phenyl)-[2-(6-Methoxy-Pyridin-2-yl)-Quinazolin-4-yl]-Amine] |
